According to patent US20200121747A1, “COMPOSITION FOR PREVENTING OR TREATING ARTHRITIS COMPRISING HYDROQUINOIC ACID” (PUKYONG NATIONAL UNIVERSITY INDUSTRY-UNIVERSITY COOPERATION …, priority 2018, published 2020):

Test: Body weight change in rheumatoid arthritis (CIA) mice
Assay type: in vivo, DBA/1J mice
Conditions: arthritis mice treated with 10 mg and 20 mg of SHQA; measured weekly for 7 weeks; FIG. 4
Experimental: Eight weeks old male DBA/1J mice (Central Lab Animal Inc., Seoul, Korea) were raised for 1 week in an environment maintaining temperature (25±2° C.), humidity (55%) and 12 hour light and dark cycle. All experiments were carried out in accordance with the guidelines of the Korean National Institutes of Health Guide for the Care and Use of Laboratory Animals, and the animal testing procedure was approved by the Animal Ethics Committee of Pukyong National University (2015-12). Rheumatoid arthritis was induced in male DBA/1J mice. Type II collagen was emulsified (CFA; 2 mg/mL) in the same volume of complete Freund's adjuvant. On day 0, 100 μg of […] was injected intradermally into the lower tail portion of the DBA/1J mice to immunize. After 21 days, 100 μg of CII (IFA; 2 mg/mL) emulsified in the same volume of incomplete Freund's adjuvant in the lower tail portion of the mice was boosted by intradermal injection. On day 42, all mice were anesthetized with ether and sacrificed. Blood (plasma sample), spleen, liver and joint tissues were immediately removed and stored at −80° C. […]
For the control group without treatment, the arthritis animal group (CIA treatment group), and the treated group in which arthritis experimental animals were treated with 10 mg and 20 mg of SHQA, their body weights were measured weekly for 7 weeks. […]

CC(C)=CCC/C(=C/CC/C(C)=C/CC/C(C)=C/Cc1cc(O)cc(C)c1O)C(=O)O [SHQA, sargahydroquinoic acid]
change in body weight: no significant change in body weight
